*: point of attachment. Lauroyl = CCCCCCCCCCCC(=O)*
Columns and labels:
Chymotrypsin = assay: Inhibition of enzymatic degradation of a model GLP-1 (FRET substrate) by chymotrypsin; type: biochemical; conditions: compound 0.1 mM, buffer containing 8% DMSO
Summary of the method: (§1)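 Initial-rate slopes of fluorescence rise (320 nm ex, 405 nm em), fitted over the linear early phase and averaged from duplicates, were plotted against inhibitor concentration and fitted logistically to give EC50. Reactions ran at 37° C in Dulbecco's PBS, with MCA/DNP GLP-1 FRET substrate added as 10 μl of 100 μM stock.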

Trypsin = assay: Inhibition of enzymatic degradation of a model GLP-1 (FRET substrate) by trypsin; type: biochemical; conditions: compound 0.1 mM, buffer containing 8% DMSO
Summary of the method: as §1

[1] = Hydrophobicity: retention time during reverse phase HPLC; type: physicochemical; conditions: Acquity CSH C18; pH 7.2 buffer/CH3CN gradient; 40° C.
Description: The retention time (RT) during reverse phase HPLC was taken as a measure of hydrophobicity of an N-terminally modified peptide or oligopeptide of the invention, where the connection is: The longer the RT, the more hydrophobic N-terminally modified peptide or oligopeptide. The following running conditions were applied during HPLC analysis:
Buffer B: 70% (v/v) aq. CH3CN

| Substance | RT (retention time during reverse phase HPLC as a measure of hydrophobicity) [1] [min] | Slope of the initial increase in fluorescence obtained during incubation with 0.001 mg/ml Chymotrypsin (Chymotrypsin) | Slope of the initial increase in fluorescence obtained during incubation with 0.001 mg/ml Trypsin (Trypsin) |
| --- | --- | --- | --- |
| N-dodecanoyl-Ala-Val-Pro-Tyr-OH (Lauroyl-AVPY-OH; SMILES CCCCCCCCCCCC(=O)N[C@@H](C)C(=O)N[C@H](C(=O)N1CCC[C@H]1C(=O)N[C@@H](Cc1ccc(O)cc1)C(=O)O)C(C)C) [Example 90] | 6.6 | 0.35 | 1.25 |
| N-dodecanoyl-Arg-Ala-Pro-Tyr-OH (Lauroyl-RAPY-OH; SMILES CCCCCCCCCCCC(=O)N[C@@H](CCCNC(=N)N)C(=O)N[C@@H](C)C(=O)N1CCC[C@H]1C(=O)N[C@@H](Cc1ccc(O)cc1)C(=O)O) [Example 92] | 4.84 | 0.23 | 1.44 |
| N-dodecanoyl-Asn-Ala-Pro-Tyr-OH (Lauroyl-NAPY-OH; SMILES CCCCCCCCCCCC(=O)N[C@@H](CC(N)=O)C(=O)N[C@@H](C)C(=O)N1CCC[C@H]1C(=O)N[C@@H](Cc1ccc(O)cc1)C(=O)O) [Example 94] | 4.77 | 1.83 | 1.90 |
| N-dodecanoyl-Asp-Ala-Pro-Tyr-OH (Lauroyl-DAPY-OH; SMILES CCCCCCCCCCCC(=O)N[C@@H](CC(=O)O)C(=O)N[C@@H](C)C(=O)N1CCC[C@H]1C(=O)N[C@@H](Cc1ccc(O)cc1)C(=O)O) [Example 96] | 3.86 | 1.63 | 1.78 |
| N-dodecanoyl-Gln-Ala-Pro-Tyr-OH (Lauroyl-QAPY-OH; SMILES CCCCCCCCCCCC(=O)N[C@@H](CCC(N)=O)C(=O)N[C@@H](C)C(=O)N1CCC[C@H]1C(=O)N[C@@H](Cc1ccc(O)cc1)C(=O)O) [Example 103] | 4.92 | 1.13 | 1.78 |
| N-dodecanoyl-Glu-Ala-Pro-Tyr-OH (Lauroyl-EAPY-OH; SMILES CCCCCCCCCCCC(=O)N[C@@H](CCC(=O)O)C(=O)N[C@@H](C)C(=O)N1CCC[C@H]1C(=O)N[C@@H](Cc1ccc(O)cc1)C(=O)O) [Example 105] | 3.91 | 1.31 | 1.56 |
| N-dodecanoyl-Gly-Ala-Ala-Pro-Tyr-OH [Example 36] | 5.33 | 0.16 | 1.47 |
| N-dodecanoyl-His-Ala-Ala-Pro-Tyr-OH [Example 38] | 4.94 | 0.02 | 1.66 |
| N-dodecanoyl-His-Ala-Pro-Tyr-OH (Lauroyl-HAPY-OH; SMILES CCCCCCCCCCCC(=O)N[C@@H](Cc1c[nH]cn1)C(=O)N[C@@H](C)C(=O)N1CCC[C@H]1C(=O)N[C@@H](Cc1ccc(O)cc1)C(=O)O) [Example 39] | 5.08 | 0.27 | 1.84 |
| N-dodecanoyl-Ile-Ala-Pro-Tyr-OH (Lauroyl-IAPY-OH; SMILES CCCCCCCCCCCC(=O)N[C@H](C(=O)N[C@@H](C)C(=O)N1CCC[C@H]1C(=O)N[C@@H](Cc1ccc(O)cc1)C(=O)O)[C@@H](C)CC) [Example 41] | 7.76 | 0.84 | 1.96 |
| N-dodecanoyl-Leu-Ala-Pro-Tyr-OH (Lauroyl-LAPY-OH; SMILES CCCCCCCCCCCC(=O)N[C@@H](CC(C)C)C(=O)N[C@@H](C)C(=O)N1CCC[C@H]1C(=O)N[C@@H](Cc1ccc(O)cc1)C(=O)O) [Example 43] | 7.86 | 0.21 | 1.36 |

Further lines, with some results ahead:

| RT (retention time during reverse phase HPLC as a measure of hydrophobicity) [1] [min] | Substance | Slope of the initial increase in fluorescence obtained during incubation with 0.001 mg/ml Chymotrypsin (Chymotrypsin) | Slope of the initial increase in fluorescence obtained during incubation with 0.001 mg/ml Trypsin (Trypsin) |
| --- | --- | --- | --- |
| 6.6 | N-dodecanoyl-Ala-Val-Tyr-OH [Example 112] | 1.44 | 2.35 |
| 4.63 | N-dodecanoyl-Arg-Ala-Ala-Pro-Tyr-OH [Example 91] | 0.00 | 1.06 |
| 5.29 | N-dodecanoyl-Arg-Pro-Tyr-OH [Example 113] | 0.18 | 2.00 |
| 4.84 | N-dodecanoyl-Asn-Ala-Ala-Pro-Tyr-OH [Example 93] | 0.14 | 1.90 |
| 5.07 | N-dodecanoyl-Asn-Pro-Tyr-OH [Example 114] | 2.01 | 1.99 |
| 3.92 | N-dodecanoyl-Asp-Ala-Ala-Pro-Tyr-OH [Example 95] | 0.10 | 1.82 |
| 3.91 | N-dodecanoyl-Asp-Pro-Tyr-OH [Example 115] | 2.04 | 1.73 |
| 4.82 | N-dodecanoyl-Gln-Ala-Ala-Pro-Tyr-OH [Example 102] | 0.14 | 1.66 |
| 5.08 | N-dodecanoyl-Gln-Pro-Tyr-OH [Example 116] | 1.48 | 1.75 |
| 3.83 | N-dodecanoyl-Glu-Ala-Ala-Pro-Tyr-OH [Example 104] | 0.16 | 1.63 |
| 3.91 | N-dodecanoyl-Glu-Pro-Tyr-OH [Example 117] | 1.82 | 1.66 |
| 5.35 | N-dodecanoyl-Gly-Pro-Tyr-OH [Example 118] | 1.94 | 1.84 |
| 5.12 | N-dodecanoyl-His-Pro-Tyr-OH [Example 119] | 0.70 | 2.13 |
| 7.82 | N-dodecanoyl-Ile-Pro-Tyr-OH [Example 120] | 0.17 | 1.08 |
| 7.87 | N-dodecanoyl-Leu-Ala-Ala-Pro-Tyr-OH [Example 42] | 0.00 | 0.89 |
